The source of these data is ChEMBL document CHEMBL2429811, “Novel selective and potent inhibitors of malaria parasite dihydroorotate dehydrogenase: discovery and optimization of dihydrothiophenone derivatives” (J Med Chem, 2013).

Data set [1] has as its system Plasmodium falciparum. Put plainly: microbe, parasite or virus in culture. The note with it: Dd2, 72 h.
Description: Antiplasmodial activity against chloroquine-resistant Plasmodium falciparum Dd2 infected in erythrocytes assessed as parasite growth inhibition after 72 hrs by SYBR green 1 dye-based fluorometric analysis
The target in data set [2] is T1, Dihydroorotate dehydrogenase (Plasmodium falciparum, UniProt Q54A96).
T1 sequence (Q54A96 whole entry): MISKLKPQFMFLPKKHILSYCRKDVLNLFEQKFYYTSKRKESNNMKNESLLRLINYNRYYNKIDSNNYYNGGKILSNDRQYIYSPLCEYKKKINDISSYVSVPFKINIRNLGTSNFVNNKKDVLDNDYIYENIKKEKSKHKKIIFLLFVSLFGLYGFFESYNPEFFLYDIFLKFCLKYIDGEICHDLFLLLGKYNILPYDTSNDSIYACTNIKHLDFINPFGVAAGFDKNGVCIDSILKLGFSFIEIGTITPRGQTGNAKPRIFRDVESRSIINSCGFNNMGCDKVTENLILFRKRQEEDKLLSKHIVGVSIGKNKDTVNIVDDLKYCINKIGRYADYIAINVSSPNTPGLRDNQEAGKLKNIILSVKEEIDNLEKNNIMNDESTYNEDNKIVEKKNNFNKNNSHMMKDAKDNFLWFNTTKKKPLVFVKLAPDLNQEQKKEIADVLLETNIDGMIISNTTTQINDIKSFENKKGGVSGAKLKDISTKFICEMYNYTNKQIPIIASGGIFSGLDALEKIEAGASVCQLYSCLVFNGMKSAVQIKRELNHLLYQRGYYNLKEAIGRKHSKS
Put plainly: Inhibition of Plasmodium falciparum DHODH (Phe158 to Ser569) expressed in Escherichia coli BL21 using dihydroorotate as substrate measured every 30 secs for 6 mins by DCIP dye-based assay.

Data set [3] has as its system Plasmodium falciparum. Put plainly: microbe, parasite or virus in culture. The note with it: 3D7, 72 h.
Description: Antiplasmodial activity against chloroquine-sensitive Plasmodium falciparum 3D7 infected in erythrocytes assessed as parasite growth inhibition after 72 hrs by SYBR green 1 dye-based fluorometric analysis
For data set [4], the target named is Dihydroorotate dehydrogenase (quinone), mitochondrial (Homo sapiens, UniProt Q02127). Put plainly: Inhibition of N-terminal His10-tagged human DHODH (Met30 to Arg396) expressed in Escherichia coli BL21 (DE3) using dihydroorotate as substrate measured every 30 secs for 6 mins by DCIP dye-based assay.
Chain of Dihydroorotate dehydrogenase (quinone), mitochondrial (Q02127 whole entry): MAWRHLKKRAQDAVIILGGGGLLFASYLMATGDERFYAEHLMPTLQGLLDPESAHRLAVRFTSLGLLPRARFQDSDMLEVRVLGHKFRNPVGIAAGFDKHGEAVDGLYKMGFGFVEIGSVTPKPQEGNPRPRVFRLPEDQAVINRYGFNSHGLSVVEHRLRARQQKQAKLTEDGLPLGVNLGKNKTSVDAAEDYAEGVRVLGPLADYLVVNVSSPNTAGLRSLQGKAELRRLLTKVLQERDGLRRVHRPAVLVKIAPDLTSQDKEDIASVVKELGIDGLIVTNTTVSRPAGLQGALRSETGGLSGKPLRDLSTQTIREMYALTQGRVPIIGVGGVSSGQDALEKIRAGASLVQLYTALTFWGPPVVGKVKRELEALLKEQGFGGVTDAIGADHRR
Data set [5] can be described thus: Cmax in Sprague-Dawley rat at 10 mg/kg, po. The note with it: in vivo. More on the design: dose 10 mg/kg, route oral. In kind it is ADME, organism-based.
A short description of data set [6]: Half life in Sprague-Dawley rat at 1 mg/kg, iv. Format: ADME, organism-based. More on the design: dose 1 mg/kg, route intravenous. Conditions: in vivo.
Data set [7] is described as follows: Half life in Sprague-Dawley rat at 10 mg/kg, po. Format: ADME, organism-based. Conditions: in vivo. Also noted: dose 10 mg/kg, route oral.
Data set [8] is described as follows: Clearance in Sprague-Dawley rat at 1 mg/kg, iv. In kind it is ADME, organism-based. Also noted: dose 1 mg/kg, route intravenous. The note with it: in vivo.
Data set [9] can be described thus: Tmax in Sprague-Dawley rat at 10 mg/kg, po. Format: ADME, organism-based. More on the design: dose 10 mg/kg, route oral. Conditions: in vivo.
A short description of data set [10]: AUC (0 to last) in Sprague-Dawley rat at 10 mg/kg, po. In kind it is ADME, organism-based. More on the design: time 0 - last, dose 10 mg/kg, route oral. Conditions: plasma.
Data set [11] is described as follows: Volume of distribution in Sprague-Dawley rat at 1 mg/kg, iv. Also noted: dose 1 mg/kg, route intravenous. Conditions: in vivo. In kind it is ADME, organism-based.
Data set [12] in a line: Oral bioavailability in Sprague-Dawley rat at 10 mg/kg. Conditions: in vivo. In kind it is ADME, organism-based.

As usually defined, the IC50 is the concentration at which inhibition is half-maximal. Low readings indicate greater potency, high ones weaker potency. By Cmax is commonly meant the peak of the concentration-time curve. The term half-life denotes how long it takes for the measured level to halve. Low values mean rapid decline, high ones slow decline. A word on the clearance: it is the rate of elimination divided by the concentration. A high value points to efficient removal. What is called Tmax is the time at which the peak concentration occurs. The term AUC(0-t) denotes the area under the concentration-time curve up to a stated or last time point. For orientation: Vd means a proportionality between amount in the body and measured concentration, not a real space. One may read the bioavailability as the share of a dose that reaches the circulation, judged against a reference dose that is usually intravenous.

The structures appear in SMILES notation.

Regarding `CCOC(=O)C1=C(Nc2ccc(Cl)cc2)SCC1=O`, the half-maximal inhibitory concentration (IC50) with Plasmodium falciparum [1] was more than 20 µM; in data set [2], 1.11 µM; in the data set on Plasmodium falciparum [3], more than 20 µM; in data set [4], more than 50 µM.

`CCOC(=O)C1=C(Nc2ccc3ccccc3c2)OCC1=O` had a Cmax in [5] of 609 ng/mL. Also, the IC50 with Plasmodium falciparum [1] was 0.018 µM; in data set [2], 0.006 µM; with Plasmodium falciparum [3], 0.015 µM; in data set [4], more than 50 µM. Moreover, the half-life is 15.6 min in [6] and 45 min in [7]. The same compound came in with a clearance in data set [8] of 84.7 mL/min/kg. For the same compound, the Tmax in data set [9] amounted to 17.4 min. The same compound gave an AUC(0-t) in data set [10] of 791 ng·h/mL. In data set [11], this compound came in with a distribution volume (Vd) of 1.91 L/kg. In [12], this compound displayed a bioavailability of 40%.

As to `CCOC(=O)C1=C(Nc2ccc3ccccc3c2)SCC1=O`, the concentration in [5] peaked (Cmax) at 25.5 ng/mL. For the same compound, the IC50 is 0.057 µM in the data set with Plasmodium falciparum [1], 0.02 µM in [2], 0.077 µM in the data set with Plasmodium falciparum [3] and more than 50 µM in [4]. Also, the half-life was 18 min in [6] and 154 min in data set [7]. For the same compound, the clearance in data set [8] was 129 mL/min/kg. For the same compound, in [9], the Tmax turned out to be 15 min. In [10], this compound showed an AUC(0-t) of 39.3 ng·h/mL. In [11], this compound registered a Vd of 3.35 L/kg. The compound also gave a bioavailability in [12] of 3.02%.
